Source: patent US8217035B2, “Pyrimidine derivatives used as PI-3-kinase inhibitors” (Novartis AG, priority 2006, dated 2012)
Read-outs that look alike come from different tables or passages of the source.

Columns and labels:
PI3 kinase alpha = PI3 kinase alpha (Homo sapiens, UniProt P42336); assay: PI3K ATP depletion assay (Biological Method 1, Assay 3; KinaseGlo luminescence); format: biochemical; conditions: ATP depletion assay, read-out: PI3 Kinase Alpha, IC50
Summary of the method: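 Compound in DMSO was mixed with 10 nM PI3 kinase and 5 μg/mL phosphatidylinositol, and the reaction was started with 2 μM ATP. It ran to about 50% ATP depletion and was stopped with KinaseGlo.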

[1] = tested on: A2780 ovarian cancer cells; assay: Cellular proliferation in A2780 cells, Cell Titer Glo (Biological Method 4); format: cell-based; conditions: Homo sapiens
Summary of the method: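 Viability after 72 h compound exposure (37 °C, 5% CO2) was read by Cell Titer Glo and an EC50 derived, each condition in duplicate. A2780 ovarian cells had been plated at 1,000 per well in DMEM/10% FBS at least 2 h beforehand.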

[2] = tested on: pSer473 Akt in A2780 cells; assay: pSer473 Akt assay to monitor PI3K pathway in A2780 cells (Biological Method 2, MSD); format: cell-based; conditions: Homo sapiens, inhibition of Akt phosphorylation
Summary of the method: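 A2780 ovarian cancer cells in DMEM/10% FBS were treated with compound for 1 h at 37 °C, then lysed. pSer473-Akt and total Akt were measured by MSD electrochemiluminescence immunoassay. The pSer473/total Akt ratio gave % inhibition versus DMSO, from which EC50 was derived.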

[3] = ovarian cancer cell line A2780, Biological Method 4

Chain of PI3 kinase alpha (P42336 whole entry): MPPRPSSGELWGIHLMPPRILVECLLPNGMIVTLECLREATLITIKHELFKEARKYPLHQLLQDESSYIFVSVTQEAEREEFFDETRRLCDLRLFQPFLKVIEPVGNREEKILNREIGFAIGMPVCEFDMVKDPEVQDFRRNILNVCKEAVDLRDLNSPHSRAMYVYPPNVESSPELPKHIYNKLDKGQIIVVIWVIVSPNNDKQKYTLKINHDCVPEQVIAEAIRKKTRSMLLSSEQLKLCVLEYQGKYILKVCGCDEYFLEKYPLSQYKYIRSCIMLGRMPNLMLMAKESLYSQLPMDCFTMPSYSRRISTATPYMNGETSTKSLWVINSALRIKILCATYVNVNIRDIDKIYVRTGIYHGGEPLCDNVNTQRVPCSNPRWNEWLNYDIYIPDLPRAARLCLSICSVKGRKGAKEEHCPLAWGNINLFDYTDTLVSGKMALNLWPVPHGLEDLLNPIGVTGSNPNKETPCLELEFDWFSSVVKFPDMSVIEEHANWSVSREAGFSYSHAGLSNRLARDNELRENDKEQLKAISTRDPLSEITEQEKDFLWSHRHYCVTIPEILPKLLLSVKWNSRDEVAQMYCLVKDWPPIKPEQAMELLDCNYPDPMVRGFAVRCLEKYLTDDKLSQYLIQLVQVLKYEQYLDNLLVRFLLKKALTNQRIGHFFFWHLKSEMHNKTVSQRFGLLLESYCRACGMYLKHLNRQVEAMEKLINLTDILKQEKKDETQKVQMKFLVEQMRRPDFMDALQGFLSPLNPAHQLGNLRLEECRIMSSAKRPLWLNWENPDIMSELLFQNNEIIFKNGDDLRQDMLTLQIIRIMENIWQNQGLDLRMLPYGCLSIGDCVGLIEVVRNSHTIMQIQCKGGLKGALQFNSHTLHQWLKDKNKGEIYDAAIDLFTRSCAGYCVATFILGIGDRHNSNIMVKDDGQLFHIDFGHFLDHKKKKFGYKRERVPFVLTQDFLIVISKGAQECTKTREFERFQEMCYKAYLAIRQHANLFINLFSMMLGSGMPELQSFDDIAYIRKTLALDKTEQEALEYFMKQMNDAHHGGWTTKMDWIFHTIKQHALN
Chain of PI3 kinase alpha (P27986 whole entry partner): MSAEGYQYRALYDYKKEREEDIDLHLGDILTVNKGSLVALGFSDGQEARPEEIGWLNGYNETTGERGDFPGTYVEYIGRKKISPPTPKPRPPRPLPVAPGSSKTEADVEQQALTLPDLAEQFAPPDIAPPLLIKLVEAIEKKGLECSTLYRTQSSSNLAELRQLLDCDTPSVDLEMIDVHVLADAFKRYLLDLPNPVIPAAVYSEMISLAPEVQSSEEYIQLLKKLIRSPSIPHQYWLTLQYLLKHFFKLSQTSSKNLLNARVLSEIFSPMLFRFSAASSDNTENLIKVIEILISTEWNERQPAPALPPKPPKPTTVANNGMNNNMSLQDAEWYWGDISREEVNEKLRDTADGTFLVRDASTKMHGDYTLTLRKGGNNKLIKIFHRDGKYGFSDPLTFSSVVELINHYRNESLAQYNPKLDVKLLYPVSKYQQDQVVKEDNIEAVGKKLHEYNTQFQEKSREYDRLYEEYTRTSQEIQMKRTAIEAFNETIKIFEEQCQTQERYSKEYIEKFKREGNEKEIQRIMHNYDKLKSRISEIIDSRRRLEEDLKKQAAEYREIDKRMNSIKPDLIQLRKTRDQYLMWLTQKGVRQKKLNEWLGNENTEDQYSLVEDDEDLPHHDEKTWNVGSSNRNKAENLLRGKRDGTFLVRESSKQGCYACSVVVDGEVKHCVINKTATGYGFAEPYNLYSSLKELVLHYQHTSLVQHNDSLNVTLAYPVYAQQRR

Structure (SMILES) | IC50 (PI3 kinase alpha) [nM] | EC50 ([1]; ovarian cancer cell line A2780) [nM] | EC50 ([2]; A2780 cells) [nM] | IC50 (PI3 kinase alpha; Biological Method 1) [nM] | EC50 [1, 3] [nM] | EC50 ([2]; A2780, Biological Method 2) [nM] | EC50 ([2]; A2780) [nM]
COc1cccc2ncc(Nc3cc(-c4cnc(N)nc4C(F)(F)F)nc(N4CCOCC4)n3)cc12 [Compound 54] | < 1000 | < 1000 | < 1000 |  |  |  | 
Nc1ccc(-c2cc(Nc3ccccc3S(N)(=O)=O)nc(N3CCOCC3)n2)cn1 [Compound 187] | < 1000 | < 10000 | < 1000 |  |  |  | 
Cc1nc(N)ncc1-c1nc(N2CCOCC2)nc(Nc2cnc3ccccc3c2)c1C [Compound 185] | < 1000 | < 1000 | < 1000 |  |  |  | 
CC(C)N1CCC(Oc2ccc(Nc3cc(-c4cnc(N)cc4C(F)(F)F)nc(N4CCOCC4)n3)cn2)CC1 [Compound 11] | < 1000 | < 1000 | < 1000 |  |  |  | 
Nc1ncc(-c2cc(OC3CCN(C(=O)c4ccccc4)CC3)nc(N3CCOCC3)n2)c(=O)[nH]1 [Compound 48] | < 1000 | < 1000 | < 1000 |  |  |  | 
Nc1ccc(-c2cc(Nc3ccncc3C(F)(F)F)nc(N3CCOCC3)n2)cn1 [Compound 142] | < 1000 | < 1000 | < 1000 |  |  |  | 
COc1cccc2ncc(Nc3cc(-c4cnc(N)cc4C(F)(F)F)nc(N4CCOCC4)n3)cc12 [Compound 140] | < 1000 | < 10000 | < 1000 |  |  |  | 
CC(=O)Nc1cc(-c2cnc(N)nc2)nc(N2CCOCC2)n1 [Compound 205] |  |  |  | < 1000 | < 10000 | < 1000 | 
N#Cc1cc(N)ncc1-c1cc(Nc2ccncc2C(F)(F)F)nc(N2CCOCC2)n1 [Compound 94] | < 1000 | < 1000 | < 1000 |  |  |  | 
N#Cc1cnccc1Nc1cc(-c2ccc(N)nc2)nc(N2CCOCC2)n1 [Compound 191] | < 1000 | < 10000 | < 1000 |  |  |  | 
COC(=O)N1CCC(Oc2cc(-c3cnc(N)nc3C(F)(F)F)nc(N3CCOCC3)n2)CC1 [Compound 70] | < 1000 | < 1000 | < 1000 |  |  |  | 
Nc1ncc(-c2cc(OC3CCN(C(=O)OC4CCCC4)CC3)nc(N3CCOCC3)n2)c(N)n1 [Compound 97] | < 1000 | < 1000 | < 1000 |  |  |  | 
COc1ccc2ncc(Nc3cc(-c4cnc(N)nc4C)nc(N4CCOCC4)n3)cc2c1 [Compound 154] | < 1000 | < 1000 | < 1000 |  |  |  | 
CC(C)C(=O)N1CCC(Oc2cc(-c3cnc(N)nc3N)nc(N3CCOCC3)n2)CC1 [Compound 134] | < 1000 | < 1000 | < 1000 |  |  |  | 
CN1CCN(c2ccc(Nc3cc(-c4cnc(N)nc4)nc(N4CCOCC4)n3)cn2)CC1 [Compound 51] | < 1000 | < 1000 | < 1000 |  |  |  | 
N#Cc1cc(-c2cnc(N)cc2C(F)(F)F)nc(N2CCOCC2)n1 [Compound 209] |  |  |  | < 1000 | < 10000 | < 10000 | 
CCN(CC)CCc1csc(Nc2cc(-c3cnc(N)cc3C(F)(F)F)nc(N3CCOCC3)n2)n1 [Compound 13] | < 1000 | < 1000 | < 1000 |  |  |  | 
NC(=O)c1cccc(Nc2cc(-c3ccc(N)nc3)nc(N3CCOCC3)n2)c1 [Compound 166] | < 1000 | < 10000 | < 1000 |  |  |  | 
CS(=O)(=O)c1cccc(-c2cc(-c3cnc(N)cc3Cl)nc(N3CCOCC3)n2)c1 [Compound 165] | < 1000 | < 1000 | < 1000 |  |  |  | 
CS(=O)(=O)N1CCC(Oc2cc(-c3cnc(N)[nH]c3=O)nc(N3CCOCC3)n2)CC1 [Compound 58] | < 1000 | < 1000 | < 1000 |  |  |  | 
CC(C)C(=O)N1CCC(Oc2cc(-c3cnc(N)[nH]c3=O)nc(N3CCOCC3)n2)CC1 [Compound 49] | < 1000 | < 1000 | < 1000 |  |  |  | 

Structure (SMILES) | IC50 (PI3 kinase alpha) [nM] | EC50 ([1]; ovarian cancer cell line A2780) [nM] | EC50 ([2]; A2780 cells) [nM] | IC50 (PI3 kinase alpha; Biological Method 1) [nM] | EC50 [1, 3] [nM] | EC50 ([2]; A2780, Biological Method 2) [nM] | EC50 ([2]; A2780) [nM]
COc1ccc2cc(Nc3cc(-c4cnc(N)nc4)nc(N4CCOCC4)n3)cnc2c1 [Compound 60] | < 1000 | < 1000 | < 1000 |  |  |  | 
CN(C)CCOc1ccc(Nc2cc(-c3cnc(N)nc3)nc(N3CCOCC3)n2)cn1 [Compound 36] | < 1000 | < 1000 | < 1000 |  |  |  | 
Nc1ccc(-c2cc(-n3ncc4c(N)cccc43)nc(N3CCOCC3)n2)cn1 [Compound 168] | < 1000 | < 1000 | < 1000 |  |  |  | 
CC(C)N1CCC(Oc2ccc(Nc3cc(-c4cnc(N)nc4C(F)(F)F)nc(N4CCOCC4)n3)cn2)CC1 [Compound 41] | < 1000 | < 1000 | < 1000 |  |  |  | 
CC(C)N1CCC(Oc2ccc(Nc3cc(-c4cnc(N)nc4N)nc(N4CCOCC4)n3)cn2)CC1 [Compound 68] | < 1000 | < 1000 | < 1000 |  |  |  | 
COc1cccc2ncc(Nc3cc(-c4ccc(N)nc4)nc(N4CCOCC4)n3)cc12 [Compound 156] | < 1000 | < 1000 | < 1000 |  |  |  | 
Nc1ncc(-c2cc(Nc3ccncc3C(F)(F)F)nc(N3CCOCC3)n2)c(C(F)(F)F)n1 [Compound 158] | < 1000 | < 1000 | < 1000 |  |  |  | 
Nc1ncc(-c2cc(O[C@H]3CCOC3)nc(N3CCOCC3)n2)c(=O)[nH]1 [Compound 39] | < 1000 | < 1000 | < 1000 |  |  |  | 
CS(=O)(=O)Nc1ncccc1-c1cc(-c2ccc(N)nc2)nc(N2CCOCC2)n1 [Compound 3] | < 1000 | < 1000 | < 1000 |  |  |  | 
Nc1ncc(-c2cc(O[C@@H]3CCOC3)nc(N3CCOCC3)n2)c(=O)[nH]1 [Compound 56] | < 1000 | < 1000 | < 1000 |  |  |  | 
CS(=O)(=O)c1cccc(Nc2cc(-c3ccc(N)nc3)nc(N3CCOCC3)n2)c1 [Compound 139] | < 1000 | < 10000 | < 1000 |  |  |  | 
CS(=O)(=O)c1ccc(Nc2cc(-c3cnc(N)nc3N)nc(N3CCOCC3)n2)cn1 [Compound 214] |  |  |  | < 1000 | < 25000 | < 10000 | 
CS(=O)(=O)c1ccccc1Nc1cc(-c2ccc(N)nc2)nc(N2CCOCC2)n1 [Compound 141] | < 1000 | < 10000 | < 1000 |  |  |  | 
CC(C)N1CC[C@@H](Oc2ccc(Nc3cc(-c4cnc(N)cc4C(F)(F)F)nc(N4CCOCC4)n3)cn2)C1 [Compound 86] | < 1000 | < 1000 | < 1000 |  |  |  | 
Cc1c(Nc2ccc(OC3CCN(C)CC3)nc2)nc(N2CCOCC2)nc1-c1cnc(N)nc1 [Compound 42] | < 1000 | < 1000 | < 1000 |  |  |  | 
Nc1ncc(-c2cc(Nc3ccc4ncccc4c3)nc(N3CCOCC3)n2)cn1 [Compound 46] | < 1000 | < 1000 | < 1000 |  |  |  | 
COc1cc(Nc2cc(-c3cnc(N)cc3C(F)(F)F)nc(N3CCOCC3)n2)ccc1OC1CCN(C(C)C)CC1 [Compound 553] | < 1000 | < 1000 |  |  |  |  | < 1000
Nc1ccc(-c2cc(Nc3ccncc3F)nc(N3CCOCC3)n2)cn1 [Compound 196] | < 1000 | < 1000 | < 1000 |  |  |  | 
Cc1c(-c2ccc(Nc3ncc(-c4ccccc4)s3)nc2)nc(N2CCOCC2)nc1-c1cnc(N)nc1 [Compound 194] | < 1000 | < 10000 | < 1000 |  |  |  | 
Nc1ccc(-c2cc(Nc3ccnc(Cl)c3)nc(N3CCOCC3)n2)cn1 [Compound 155] | < 1000 | < 10000 | < 1000 |  |  |  | 
